Patent publication US12157745B2, “Heterocyclic systems and pharmaceutical compositions thereof” (University of Sharjah, priority 2018, dated 2024)

How the values were obtained:
thioredoxin reductase = molecular target: T1, thioredoxin reductase (Homo sapiens, UniProt Q16881); test: DARTS proteomic assay; type: binding; details: FIG. 9
T1 construct: HEK293T cells were lysed using M-PER; endogenous in cells; host or cells: HEK293T lysate
Excerpt: (§1) The unique properties of compound it prompted an in-depth analysis to explore its potential novel targets. […] Mammalian thioredoxin reductases (TrxRs) are selenocysteine-containing homodimericflavin enzymes that catalyze the NADPH-dependent reduction of oxidized thioredoxins. […] Therefore, inhibiting this enzyme should form the foundation of a novel anticancer lead drug candidate. Many drug companies around the world are trying to design drugs that target this enzyme, however, until now there is no clinical anti-cancer drug that specifically targets TrxR although some drugs have been reported to inhibit TrxR to varying extents. […] One of the hurdles in developing a successful TrxR inhibitor is its cross reactions with thiols present inside the cells. […] Moreover, according to many reports, inhibiting excessive TrxR levels will also […] of Parkinson's disease as well as Alzheimer's disease. On the other hand, increased aminopeptidases are typically observed in many cancer tissues and play a key role in tumor cell proliferation, angiogenesis, and tumor invasiveness by regulating extracellular matrix degradation and cell signaling and recognition. […] A DARTS assay was used to assess the binding of compound 1t. HEK293T cells were lysed using M-PER (Thermo Scientific, Inc.) supplemented with protease and phosphatase inhibitors (Lysis buffer). 4.7 mg/mL of protein and TNC buffer (10 mM Tris, 140 mMNaCl, 5 mM CaCl2)) was added, compound it was diluted in DMSO to 3 different concentrations (0.01 μM, 0.1 μM, 1 μM) and incubated for one hour at room temperature. Trypsin (Promega) was added and incubated for 3 hours at 37° C. Thereafter, M-PER lysis buffer was added and the samples were concentrated with Microcon 10K centrifugal filters. The proteins were identified by gel electrophoresis liquid chromatography mass spectroscopy ([…]).

cytosol aminopeptidase = molecular target: T2, cytosol aminopeptidase (Homo sapiens, UniProt P28838); test: DARTS proteomic assay; type: binding
T2 construct: HEK293T cells were lysed using M-PER; endogenous in cells; host or cells: HEK293T lysate
T2 sequence (P28838 whole entry): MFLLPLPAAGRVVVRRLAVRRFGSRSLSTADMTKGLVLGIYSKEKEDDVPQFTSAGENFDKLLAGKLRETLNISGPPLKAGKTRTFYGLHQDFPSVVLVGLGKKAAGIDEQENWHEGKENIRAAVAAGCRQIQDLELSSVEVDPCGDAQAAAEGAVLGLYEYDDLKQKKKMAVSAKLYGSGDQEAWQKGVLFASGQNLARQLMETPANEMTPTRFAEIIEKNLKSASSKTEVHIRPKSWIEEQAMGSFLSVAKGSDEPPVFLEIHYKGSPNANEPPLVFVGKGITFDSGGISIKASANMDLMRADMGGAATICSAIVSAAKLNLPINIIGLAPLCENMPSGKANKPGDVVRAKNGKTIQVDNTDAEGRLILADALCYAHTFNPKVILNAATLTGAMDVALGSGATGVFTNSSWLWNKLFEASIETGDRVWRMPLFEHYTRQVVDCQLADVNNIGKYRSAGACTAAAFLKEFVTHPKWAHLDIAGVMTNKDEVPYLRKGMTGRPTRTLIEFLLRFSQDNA
Excerpt: as §1

C-Myc oncogenic protein = test: Western blot, C-Myc expression; type: cell-based; details: all the tested cell lines
Procedure: Over-expression of this oncogene could result in tumor cell proliferation and migration and therefore its inhibition may halt tumor growth. Other pro-apoptotic (Bid, Bax, caspase-3 & -9) and anti-apoptotic (Bcl-xL) proteins were also modulated by compound it as evident from western blot analysis and as confirmed by annexin V study (FIG. 7).
(§2) The MCF-7, SKBR3 and HCT116 total cell lysate were prepared after 24 hours of treatment with compound it at IC50 and DIC50 doses by using 1× laemmli buffer. Total protein concentration was then estimated for each sample and 15-30 μg of protein lysate were loaded equally on 12% SDS-PAGE gel in order to detect various proteins expression levels. In short, the membrane was incubated with different primary antibodies (as mentioned in above section) (1:1000) overnight after blocking with 5% non-fat milk solution for 1 hour. The membrane was then re-probed with respective mouse/rabbit secondary antibodies (1:2000) for 1 h, and later developed by enhanced chemiluminescence (ECL) method by using a Chemidoc MP (BioRad, Germany).

SKBr3 cells = test: Apoptosis study (western blot, caspase-3 activation); type: cell-based; details: multi-drug resistant breast cancer cells SKBr3
Procedure: Apoptosis studies: The molecular effect of compound it was evaluated by investigating its apoptotic (FIG. 5) and cell cycle arresting potentials (FIGS. 6A and 6B). Compound it arrests the cells at G0/G1 phase in MCF-7 cells (>15%) with respect to control cells after 16, 24, 48, and 72 hours of treatment.
as §2
The apoptotic level was measured using a kit method as per supplier's protocol. […] 2×10^6 cells were counted and re-suspended in 1 mL of binding buffer (1×). […] 400 μL of IX binding buffer was finally added to the cells and analyzed immediately by using by a flow cytometer (BD, Accuri C6).

H2AX = test: DNA damage study, H2AX phosphorylation (western blot); type: cell-based; details: SKBr3 cells; IC50 and Double IC50 treatments
Excerpt: DNA damage studies: One of the main properties of any efficient chemotherapeutic drug is to induce DNA damage in tumor cells either directly or indirectly by generating harmful DNA crosslinks, which can lead to apoptosis and impact the cell by disrupting gene function and/or impairing transcription, DNA replication, and cell proliferation. To gain additional knowledge of compound it's anticancer properties, its mechanism of action to induce DNA damage was studied in breast and colon cancer cells (FIG. 8). One of the critical post-translational modifications of chromatin is phosphorylation of multiple proteins involved in DNA damage pathway and one of the earliest events during DNA double strand break is the phosphorylation of Ser139 on the specialized histone called H2AX, which is then referred to as γ-H2AX.
as §2, with “The membrane was then re-probed with respective mouse/rabbit secondary antibodies (1:2000) for 1 h, and later developed by enhanced chemiluminescence (ECL) method by using a Chemidoc MP (BioRad, Germany).” left out

MCF7 cells = test: Cell synchronization study, antiproliferative effect on synchronized cells; type: cell-based
Procedure: Cell synchronization and tubulin study: The antiproliferative effect of the compound it was tested on MCF7 cells which were synchronized at specific phases of the cell cycle. […] One way of inhibiting cell proliferation in G2/M phase is by altering equilibrium between polymerization and depolymerization of microtubule proteins which is required for active mitotic cell division.

[1] = molecular target: T3, dihydrolipoamide dehydrogenase (Homo sapiens, UniProt P09622); test: DARTS proteomic assay; type: binding; details: FIG. 15
T3 construct: HEK293T cells were lysed using M-PER; endogenous in cells; host or cells: HEK293T lysate
T3 sequence (P09622 36-509): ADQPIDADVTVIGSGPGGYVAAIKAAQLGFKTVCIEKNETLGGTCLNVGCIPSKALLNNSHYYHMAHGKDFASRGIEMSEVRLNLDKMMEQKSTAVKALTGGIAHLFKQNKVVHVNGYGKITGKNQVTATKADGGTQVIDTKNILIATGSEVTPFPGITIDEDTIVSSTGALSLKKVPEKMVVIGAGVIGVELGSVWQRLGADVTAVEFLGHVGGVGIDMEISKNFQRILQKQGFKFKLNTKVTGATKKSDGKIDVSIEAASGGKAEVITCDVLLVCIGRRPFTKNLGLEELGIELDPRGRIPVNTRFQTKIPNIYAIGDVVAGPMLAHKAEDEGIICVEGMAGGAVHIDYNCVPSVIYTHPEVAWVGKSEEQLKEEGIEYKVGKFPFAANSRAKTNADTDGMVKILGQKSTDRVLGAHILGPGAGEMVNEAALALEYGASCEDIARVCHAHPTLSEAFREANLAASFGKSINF
Excerpt: The unique properties of compound it prompted an in-depth analysis to explore its potential novel targets.
Dihydrolipoamide dehydrogenase (DLD) is a mitochondrial enzyme involved in metabolic process that is encoded by the DLD gene. Not many studies have been done to identify the direct involvement of this enzyme in cancers. However, a deregulated level of DLD may modulate mitochondrial-mediated diseases and may impair normal metabolic processes. […] The presently disclosed data is encouraging and indicates compound it may potentially be used to target multiple key enzymes that are involved in tumor development and progression.
A DARTS assay was used to assess the binding of compound 1t. HEK293T cells were lysed using M-PER (Thermo Scientific, Inc.) supplemented with protease and phosphatase inhibitors (Lysis buffer). 4.7 mg/mL of protein and TNC buffer (10 mM Tris, 140 mMNaCl, 5 mM CaCl2)) was added, compound it was diluted in DMSO to 3 different concentrations (0.01 μM, 0.1 μM, 1 μM) and incubated for one hour at room temperature. Trypsin (Promega) was added and incubated for 3 hours at 37° C. Thereafter, M-PER lysis buffer was added and the samples were concentrated with Microcon 10K centrifugal filters. The proteins were identified by gel electrophoresis liquid chromatography mass spectroscopy (GelLCMS).

T1 sequence (Q16881 151-649 limits assumed): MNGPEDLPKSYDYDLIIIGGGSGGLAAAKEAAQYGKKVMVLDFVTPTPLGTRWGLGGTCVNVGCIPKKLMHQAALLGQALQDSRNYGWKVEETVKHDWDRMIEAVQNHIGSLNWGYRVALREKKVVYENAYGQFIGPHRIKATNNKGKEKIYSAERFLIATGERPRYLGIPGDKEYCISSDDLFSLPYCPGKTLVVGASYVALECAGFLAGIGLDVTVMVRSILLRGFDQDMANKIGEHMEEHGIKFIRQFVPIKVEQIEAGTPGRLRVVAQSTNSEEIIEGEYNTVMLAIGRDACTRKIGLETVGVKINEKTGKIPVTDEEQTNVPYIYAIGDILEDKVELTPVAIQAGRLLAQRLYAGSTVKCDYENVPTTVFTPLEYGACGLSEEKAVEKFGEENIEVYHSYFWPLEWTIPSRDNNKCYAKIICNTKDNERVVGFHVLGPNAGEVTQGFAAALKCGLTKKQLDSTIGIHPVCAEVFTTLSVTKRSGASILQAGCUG

- Concentration of highest effect on TrxR (thioredoxin reductase): 1 µM
- Modulation of TrxR (thioredoxin reductase; HEK293T lysate, 0.01, 0.1, 1 μM): concentration-dependent modulation
- Targeting of cytosolic aminopeptidase (cytosol aminopeptidase): dose-dependent manner
- Regulation of dihydrolipoamide dehydrogenase [1]: regulates this enzyme
SMILES: CC1(C)[C@H]2COc3ccc4ccccc4c3[C@H]2N=C2SC(c3ccccc3)=C(c3ccccc3)N21 [Compound 1t]
- C-Myc oncogenic protein (C-Myc oncogenic protein): inhibited
- Apoptotic induction (SKBr3 cells): mitochondrial-mediated apoptotic induction with caspase-3 activation
- H2AX phosphorylation (H2AX): induced H2AX phosphorylation
- Sensitivity of G2/M-arrested cells versus asynchronous cells (MCF7 cells; MCF7 cells synchronized at specific phases of the cell cycle): more sensitive
- Cells arrested at G2/M phase (MCF7 cells; synchronized MCF7 cells): 18.5%
